{"source": "patent US20220062340A1", "about": "“IMMUNOTHERAPEUTIC METHODS AND COMPOSITIONS” (KING'S COLLEGE LONDON, priority 2018, published 2022)", "key": {"Tregs from CD patients": {"system": "Tregs from CD patients", "test": "Gene array of expanded Tregs from CD patients", "assay_type": "cell-based, human", "details": "compared to rapamycin only, n=3", "procedure": "Gene array analyses were carried out using Partek® software with a 1-way ANOVA to assess for differential gene expression.\n1) RNA extraction was performed using Qiagen RNEasy mini/micro kits as per manufacturer's instructions. The samples were checked for RNA quality using the Agilent 2100 Bioanalyzer and quantified using the Nanodrop (ND-1000 Spectrophotometer). Samples which passed QC (RIN>8) were chosen such that input amount of each sample was 3 ng.\n2) SPIA cDNA was generated using the “Ovation Pico WTA System V2” kit from Nugen, following the manufacturer's instructions.\n3) The SPIA cDNA was subjected to a QC check to assess quality (Agilent 2100 Bioanalyzer) and quantity (Nanodrop ND-1000 Spectrophotometer) for the next stage.\n4) The SPIA cDNA was fragmented and Biotin-labelled using the “Encore Biotin Module” from Nugen according to the manufacturer's instructions and passed through QC checks to assess fragmentation size (Agilent 2100 Bioanalyzer).\n6) Hybridization cocktails were prepared of the fragmented labelled-cDNA according to Nugen's recommendations and hybridized at 45° C. overnight in an oven.\n7) The arrays were washed and stained using wash protocol FS450_0002 (Affymetrix protocol recommended for Human Gene 2.0 Arrays on the GeneChip Fluidics station 450.\n8) The arrays were scanned using the Affymetrix GeneChip Scanner.\nGene expression analyses were performed on Tregs from CD patients expanded in the presence of Rapa+ATRA, Rapa+RAR568 or rapamycin only (n=3 in each group). […] CD161 has previously been described as a marker of T helper (Th) 17-like Tregs^32. This was not observed in the RAR568-treated group. […] IL-18 Receptor 1 and STAT4 are responsible for Th1 lineage commitment and IFNγ production, both have been independently identified as IBD disease related polymorphisms on GWAS^33-36. CD38 has been identified as a marker associated with mature T cells, signaling reduced proliferation, but an increased ability to produce pro-inflammatory cytokines such as IFNγ^37. Ligation of GPR174 negatively affects Treg accumulation and function^38. No clear difference in transcripts for canonical pathways were identified when ATRA treated cells were compared with RAR568 treated cells.\nTo assess for off target RARγ effects, we compared the gene expression profiles of RAR568 and ATRA treated cells to a published dataset of RARγ target genes^39. […] Given the efficacy at inducing α4β7 and lack of off target effects, RAR568 fulfilled the target product profile for an agent that could be used for ex vivo Treg expansion for cell-based therapy purposes. Therefore, we probed this effect of RAR568 on Tregs from CD patients in functional in vitro and in vivo trafficking assays."}, "RARβ": {"biological_target": "T1, RARβ (Homo sapiens, UniProt P10826)", "T1 sequence (P10826 1-455)": "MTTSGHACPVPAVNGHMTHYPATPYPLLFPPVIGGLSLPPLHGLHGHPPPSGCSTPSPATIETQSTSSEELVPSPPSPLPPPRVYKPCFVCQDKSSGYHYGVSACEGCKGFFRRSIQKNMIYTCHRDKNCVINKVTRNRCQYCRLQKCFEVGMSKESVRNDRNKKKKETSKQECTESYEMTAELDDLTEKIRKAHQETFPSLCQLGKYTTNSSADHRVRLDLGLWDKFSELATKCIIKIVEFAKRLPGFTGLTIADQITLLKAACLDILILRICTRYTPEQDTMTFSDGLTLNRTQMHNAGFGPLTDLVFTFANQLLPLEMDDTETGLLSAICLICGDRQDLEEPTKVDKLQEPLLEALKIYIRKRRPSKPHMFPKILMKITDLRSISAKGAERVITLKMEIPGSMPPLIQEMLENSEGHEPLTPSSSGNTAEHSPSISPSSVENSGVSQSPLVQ", "test": "Selectivity profile against human RARs (RARβ)", "assay_type": "biochemical"}, "[1]": {"system": "human foetal small bowel xenografts", "test": "C.B-17 SCID mouse human intestinal xenotransplant model, Treg trafficking", "assay_type": "in vivo", "procedure": "Mice are injected with anti-asialo GM1 antibody at day −2 prior to transfer in order to deplete natural killer (NK) cells. On the day of Treg transfer, mice were treated with Tregs that were either expanded with Rapamycin alone or with the addition of RAR568. Mice also received 1000IU of rhlL-2 IP on the day of Treg transfer, to support the Treg in circulation. After three days in circulation, the presence of CFSE labelled Tregs was assessed by FACS in digested xenograft samples and immunofluoresence on frozen sections. […] Induction of α4β7 is functionally relevant in vivo (e) Control XG, no Tregs, (f) XG from mouse treated with Rapa Tregs (g) XG from mouse treated with Rapa+RAR568 Tregs.\nThe C.B-17 SCID mouse human intestinal xenograft model has been previously described^28,29. Institutional Review Board (IRB) and Institutional Animal Care and Use Committee (IACUC) approvals were obtained prospectively (Ethics Committee for Animal Experimentation, Hebrew University of Jerusalem; MD-11-12692-4 and the Helsinki Committee of the Hadassah University Hospital; 81-23/04/04). Tregs were labelled with CFSE (Invitrogen) prior to transfer, as per manufacturer's instructions. Xenografts were processed as per LPMC digestion protocol. CFSE positive cells were detected by flow cytometry. Additionally, CFSE positive cells were detected by immunofluorescence on frozen sections from treated xenografts.\nFresh xenograft sections were fixed and stored in OCT. Fixed cryostat sections were blocked with 20% fetal calf serum (FCS) and stained with rat anti human CD45 (Invitrogen) and mouse antihuman FOXP3 (Biolegend), followed by donkey anti-rat AF594 (Invitrogen) and donkey anti-mouse NL637 (RnD Systems).\nTo assess if the induction of α4β7 was functionally relevant in vivo, cells treated with RAR568 or cells expanded under standard conditions were fluorescently labelled and transferred into a SCID mouse xenografted with human fetal intestinal small bowel by intra-venous injection. Inflammation was induced in the xenografts with Mycobactrium Avium Paratuberculosis (MAP). […]"}, "CD62L on Tregs": {"system": "CD62L on Tregs", "test": "CD62L expression following ex vivo expansion", "assay_type": "cell-based, human", "details": "FIG. 9", "description": "To address the balance between regulatory and effector T cells in the lamina propria of patients with CD, we sought to develop a highly suppressive, phenotypically stable population of autologous ex vivo expanded Tregs that were licensed to traffic to the gut by high level expression of α4β7. These cells could then be utilized as an autologous cell-based therapy for CD. We compared the efficacy of ATRA with RAR568 at inducing α4β7, to determine which agent would be more suitable for downstream application in a clinical trial of Treg therapy for CD. As previously defined^22, our standard culture conditions used the CD4^+CD25^hiCD127^loCD45RA^+ nïave Treg subset, cultured in the presence of rapamycin (RAPA) and high dose IL-2. […] Additionally, cells cultured in the presence of RAR568 cumulatively expressed more α4β7 than those cultured in the presence of ATRA (95.89±1.93 vs 74.21±25.89, p=0.024; FIG. 2b). […] The expression of CD62L, required for homing to the lymph nodes and the effective interaction between integrin α4β7 and its ligand MAdCAM-1 was maintained following ex vivo expansion, irrespective of retinoid treatment (FIG. 9)."}}, "data": [{"smiles": "CCOc1c(Cl)cc(C(=O)Nc2ccc(C(=O)O)c(C)c2)cc1OC(C)C", "note": "[RAR568]", "values": [{"measurement": "transcripts for CD161", "setting": "Tregs from CD patients", "result": "not observed"}, {"measurement": "selectivity for RARα over RARβ", "setting": "RARβ", "result": 290, "unit": "fold"}, {"measurement": "Treg trafficking to xenografts", "setting": "[1]; 72 hours following i.v. transfer of agonist-treated Tregs, compared to Tregs expanded under standard conditions", "result": "significantly more likely to traffic to xenografts"}, {"measurement": "Treg trafficking to inflamed xenografts", "setting": "[1]; MAP-induced inflammation, agonist-treated Tregs vs standard conditions", "result": "significantly more RAR568-treated cells trafficked to the inflamed xenografts"}, {"measurement": "presence of CFSE labelled FOXP3+ Tregs in cryosections from inflamed xenografts", "setting": "[1]; immunofluorescence, FIG. 5g", "result": "evident"}, {"measurement": "expression of CD62L following expansion", "setting": "CD62L on Tregs", "result": "not affected"}]}]}
